Read-outs that look alike come from different tables or passages of the source.
Test system: C3H10 T1/2 cells
Assay: Adipocyte differentiation / automated determination of lipid accumulation in adipocytes
Assay type: cell-based
Details: Mus musculus, C3H 10T1/2, 168 h, 50 micromolar chicoric acid, differentiated C3H10 T1/2 adipocytes, 7 days in DM-Supplemented (200nM Insulin, 10µM Rosiglitazone)
Method: C3H10 T1/2 cells were seeded on Collagen Type I coated 24-well plates at a cell density of 3.8x10^4 cells/mL in Differentiation Base medium (DM-Base), containing DMEM without Phenol Red, supplemented with 10% FCS, 4mM L-Glutamine and 1% Pen/Strep (v/v) at 37° C in an incubator with 5% CO2 atmosphere and 85%-90% relative humidity over 72hours. After this pre-incubation, DM-Base is replaced by DM-Supplemented, containing DM-Base plus 200nM Insulin, plus 10µM Rosiglitazone. Test compounds (e.g.: chicoric acid) were added in DM-Supplemented, and kept in culture for 7 consecutive days. Each experiment was performed in triplicates. Every second day medium and compounds were renewed.
Cells were fixed by adding 1mL of 60% 2-Propanot in PBS to each well and incubated for 1.5h at 4°C. The cells were then twice washed with 1mL PBS/well. […]
Lipid droplets were quantified with the Cellomics® Array Scan® VTI HCS Reader. Fat droplets were detected with the provided SpotDetector® Bio-Application. The fluorescent dye, BODIPY® 493/503, was used to visualise and quantify fat droplets (number, area, intensity) in differentiated C3H10 T1/2 adipocytes. […] Channel one (Ch1) applies the XF93-Hoechst filter and is the focus channel in which objects (nuclei) are identified, whereas the spots (fat droplets) are detected in channel two (Ch2) using a XF93-FITC filter.

For O=C(/C=C/c1ccc(O)c(O)c1)O[C@H](C(=O)O)[C@H](OC(=O)/C=C/c1ccc(O)c(O)c1)C(=O)O (stereo in doubt) [chicoric acid, Chicoric acid], the inhibition at 50 µM (read-out: decrease in the average number of lipid droplets per adipocyte) was 69% and the inhibition at 50 µM (read-out: decrease in the average size of the lipid droplets in adipocytes) was 42%.

Reference: patent EP2848286A1, “Cosmetic composition comprising chicoric acid” (DSM IP Assets B.V., priority 2013, dated 2015)
